Experimental data: PMC7175314, “Development of Novel ^111-In-Labelled DOTA Urotensin II Analogues for Targeting the UT Receptor Overexpressed in Solid Tumours” (Biomolecules, 2020)
Where a SMILES comes first, the peptide text is derived from it. Bridges are numbered along the chain shown (N, C = ends). [ ]: non-standard residue; d: D form. The star is where a group is joined. DOTA = O=C(O)CN1CCN(CC(=O)O)CCN(CC(=O)*)CCN(CC(=O)O)CC1; Pen = CC(C)(S)[C@H](N)C(=O)O; Orn = NCCC[C@H](N)C(=O)O; Ahx = NCCCCCC(=O)O

Legend:
human UT [1] = target: T1, human UT (Homo sapiens, UniProt Q9UKP6); experiment: Competition binding of ^125I-hUII on HEK-293 cells expressing UT; conditions: displacement of ^125I-hUII (0.2 nM), HEK-293 cells expressing human UT, 2 h 22 °C
T1 construct: expressed in transfected cells; host or cells: HEK-293
T1 sequence (Q9UKP6 1-389): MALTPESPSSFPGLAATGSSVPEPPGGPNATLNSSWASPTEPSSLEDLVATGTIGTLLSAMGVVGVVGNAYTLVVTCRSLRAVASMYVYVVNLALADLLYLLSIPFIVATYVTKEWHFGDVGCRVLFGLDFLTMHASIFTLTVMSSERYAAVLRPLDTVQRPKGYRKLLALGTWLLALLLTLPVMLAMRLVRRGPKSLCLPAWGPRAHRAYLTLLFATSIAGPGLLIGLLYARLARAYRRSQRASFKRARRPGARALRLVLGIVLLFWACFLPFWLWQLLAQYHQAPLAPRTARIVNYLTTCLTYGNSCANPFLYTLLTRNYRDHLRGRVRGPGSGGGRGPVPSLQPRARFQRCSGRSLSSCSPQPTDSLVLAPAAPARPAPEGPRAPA
Protocol: Cultured HEK-293 cells expressing UT-MYC were rinsed three times with PBS, dried under a cold air stream and stored at −80 °C until binding experiments. […] At the end of the incubation, cells were washed three times with assay buffer, solubilised with 1% SDS and the radioactivity was counted in a gamma counter (LKB Wallac, Evry, France).

human UT [2] = target: T1, human UT; experiment: Calcium assay (fluo-4, FlexStation) in HEK-293 cells expressing UT; assay type: cell-based; conditions: [Ca^2+]c increase, HEK-293 cells expressing human UT, 10^−11 to 10^−6 M
Protocol: HEK-293 cells expressing UT-MYC were plated at 50,000 cells/well into clear-bottom, black, 96-well plates (Corning, Bagneaux-sur-Loing, France), previously coated with poly-L-ornithine (100 µg/mL, 1 h, 37 °C) and incubated overnight in culture medium. After 24 h, cells were rinsed twice with HBSS buffer (20 mM HEPES, 0.5 mM MgCl2, 2.6 mM CaCl2, 7.7 mM Na2CO3, 1.4 mM MgSO4, 5.3 mM KCl, 138 mM NaCl, 0.1% BSA, 5.5 mM glucose, 2.5 mM probenecid, pH 7.4) (Sigma Aldrich, Saint-Quentin-Fallavier, France) and loaded (40 min at 37 °C) with the calcium-sensitive dye fluo-4 AM (ThermoFisher Scientific, Montigny-Le-Bretonneux, France) containing pluronic acid (20% in DMSO). […] Data were expressed as the ratio of maximum response to the average control value.

human UT [3] = target: T1, human UT; experiment: UT internalisation assay (ELISA) in HEK-293 cells expressing UT-MYC; assay type: cell-based; conditions: 1 h, graded concentrations up to 10^−6 M
Protocol: For ELISA experiments, HEK-293 cells expressing UT-MYC were plated at 10,000 cells/well into white, 96-well plates (Corning, Bagneaux-sur-Loing, France), previously coated with poly-L-ornithine (100 µg/mL, 1 h, 37 °C) and incubated overnight in culture medium. […] Cells were permeabilised or not with Triton X-100 (0.05%, 5 min). Non-specific binding sites were blocked with FBS (10%) and normal donkey serum (NDS, 2%, 1 h). Cells were then incubated with anti-MYC antibody (1 h, 20 °C) followed by incubation with GAM-HRP (1 h, 20 °C). After washes, chemoluminescence was detected with an ELISA kit (ThermoFisher Scientific, Montigny-Le-Bretonneux, France) and the InfinitePro200 plate reader (TECAN FRANCE, Lyon). Data are expressed as the ratio between intensity measured on the permeabilised cells and that measured on the non-permeabilised cells, compared to the average control value.

human UT-GFP = target: T2, human UT-GFP (Homo sapiens, UniProt Q9UKP6); experiment: UT internalisation by confocal microscopy in HEK-293 cells expressing UT-GFP; assay type: cell-based; conditions: 10^−7 M, 1 h
T2 construct: expressed in transfected cells; host or cells: HEK-293 (transient)
T2 sequence (Q9UKP6 1-389): T1 sequence (Q9UKP6 1-389)
Protocol: For cytochemistry experiments, HEK-293 cells expressing UT-GFP were seeded at 70,000 cells/well into transparent, 24-well plates (Corning, Bagneaux-sur-Loing, France), previously coated with human fibronectin (25 µg/mL, overnight, 4 °C) and incubated overnight in culture medium. […] Cells were rinsed with PBS, fixed with paraformaldehyde (4%, 10 min) and counterstained with DAPI (1 µg/mL, 5 min) to label nuclei. Image analysis was performed by confocal microscopy (Leica TCS SP8 confocal laser scanning microscope).

in vivo = experiment: in vivo; parameters: species or system Swiss (nu/nu) mice; conditions: Swiss (nu/nu), mouse, iv, 2 MBq
Protocol: For tumour targeting studies, inocula (100 µL) containing a suspension of 5 × 10^6 freshly harvested A549 or DLD-1 cells in phosphate buffered-saline were injected subcutaneously into the right shoulder blade in Swiss (nu/nu) mice (n = 5 in each group). When the tumour size reached 250 mm^3 (approximatively 2-weeks), 2 MBq of ^111In-DOTA-hUII or ^111In-DOTA-urantide were injected into the tail vein. After 24 h, animals were sacrificed, and tumours were collected, directly frozen in isopentane (−50 °C) and stored at −80 °C.

in vitro = in vitro ADME, human
Protocol: The mixture was incubated in a 5% CO2, 37 °C and 100 μL aliquots (in triplicates) were removed at different time points and treated with 200 μL of EtOH to precipitate serum proteins. Samples were then centrifuged for 15 min at 2500g and after centrifugation, 50 μL of supernatant was counted, and also analysed by thin layer chromatography to determine the amount of intact peptide and its metabolites in the serum.

[4] = parameters: species or system C57BL/6 mice; conditions: mouse, in vivo, iv
Protocol: For biodistribution studies, C57BL6/6 wild-type mice were injected with ^111In-DOTA-hUII (3 MBq, 100 µL) into the tail vein. Mice were sacrificed at 4, 24, 48 and 72 h post-injection and blood and organs were collected. All samples were analysed with a gamma counter and the data presented were calculated as the percent injected dose per gram of tissue (% ID/g). Data were expressed as mean ± SEM obtained from four animals per kinetic time.

DLD-1 cells [5] = experiment: Cell migration assay (modified Boyden chamber), DLD-1; assay type: cell-based, human; conditions: 10^−9 or 10^−7 M, 24 h
Protocol: (§1) DLD-1 and A549 cells were seeded (50,000 cells) on transwell filters with 8-µm pores previously coated with human fibronectin (25 µg/mL, 4 °C, overnight) in serum-free medium on the upper chamber. […] After 24 h incubation period at 37 °C, filters were rinsed with PBS and non-migrating cells were removed from the upper surface by using a cotton-swab. Migrating cells were fixed in successive baths of methanol (50, 70, 90 and 100%), stained with eosin and haematoxylin and filters were mounted on glass slides with Mowiol. Random phase contrast images of filters were then recorded, using a digital camera connected to a Nikon microscope (Eclipse TS-100) and image analysis was performed by using Image J’s Cell Counter. The data were represented as the ratio of treatment chemoattraction normalised to control.

A549 cells [6] = experiment: Cell migration assay (modified Boyden chamber), A549; assay type: cell-based, human; conditions: 10^−9 or 10^−7 M, 24 h
Protocol: as §1

DLD-1 cells [7] = experiment: Cell proliferation, DLD-1; assay type: cell-based, human; conditions: 10^−9 or 10^−7 M, only observable after 48 h
A549 cells [8] = experiment: Cell proliferation, A549; assay type: cell-based, human; conditions: 10^−9 or 10^−7 M, only observable after 48 h
[9] = total radioactivity, Ratio tumour/muscle

Row | Structure (SMILES) | IC50 (human UT [1]) | EC50 (human UT [2]) | internalisation rate of UT (ELISA) (human UT [3]) | accumulation of UT in cytosolic puncta (confocal microscopy) (human UT-GFP) | tissue to tissue ratio at 24 h (in vivo) | tissue to tissue ratio at 24 h (in vivo; Ratio tumour/muscle) | tissue to tissue ratio at 24 h (in vivo; total radioactivity) | tissue to tissue ratio at 24 h (in vivo; [9]) | tissue to tissue ratio at 24 h (in vivo; tumour/muscle ratio) | further results
1 | CC(C)[C@H](NC(=O)[C@@H]1CSSC[C@H](NC(=O)[C@H](CC(=O)O)NC(=O)[C@@H]2CCCN2C(=O)[C@@H](NC(=O)[C@H](CCC(=O)O)NC(=O)CCCCCNC(=O)CN2CCN(CC(=O)O)CCN(CC(=O)O)CCN(CC(=O)O)CC2)[C@@H](C)O)C(=O)N[C@@H](Cc2ccccc2)C(=O)N[C@@H](Cc2c[nH]c3ccccc23)C(=O)N[C@@H](CCCCN)C(=O)N[C@@H](Cc2ccc(O)cc2)C(=O)N1)C(=O)O [DOTA-hUII, DOTA-Ahx-ETPD[CFWKYC]V] | 0.00913 ± 0.00206 µM | 0.0194 ± 0.00247 µM | exerted similar effects, with very close potency and efficacy | promoted a strong accumulation of UT in cytosolic puncta into cells | 2.85 ± 0.66 | 3.33 ± 0.96 |  |  |  | 
2 | CC(C)[C@H](NC(=O)[C@@H]1CSSC(C)(C)[C@H](NC(=O)[C@H](CC(=O)O)NC(=O)CCCCCNC(=O)CN2CCN(CC(=O)O)CCN(CC(=O)O)CCN(CC(=O)O)CC2)C(=O)N[C@@H](Cc2ccccc2)C(=O)N[C@H](Cc2c[nH]c3ccccc23)C(=O)N[C@@H](CCCN)C(=O)N[C@@H](Cc2ccc(O)cc2)C(=O)N1)C(=O)O [DOTA-urantide, DOTA-Ahx-D[Pen-F-W-Orn-YC]V] ({DOTA-Ahx}-D[Pen]F[dW][Orn]YCV-OH; disulfide 2-7) |  |  | failed to provoke UT internalisation | ineffective | 2.08 ± 0.45 | 2.47 ± 0.15 |  |  |  | 
3 | CC(C)[C@H](NC(=O)[C@@H]1CSSC[C@H](NC(=O)[C@H](CC(=O)O)NC(=O)[C@@H]2CCCN2C(=O)[C@@H](NC(=O)[C@H](CCC(=O)O)NC(=O)CCCCCNC(=O)CN2CCN(CC(=O)O)CCN(CC(=O)O)CCN(CC(=O)O)CC2)[C@@H](C)O)C(=O)N[C@@H](Cc2ccccc2)C(=O)N[C@@H](Cc2c[nH]c3ccccc23)C(=O)N[C@@H](CCCCN)C(=O)N[C@@H](Cc2ccc(O)cc2)C(=O)N1)C(=O)O [^111In-DOTA-hUII, metal not drawn] |  |  |  |  |  |  | 2.85 ± 0.66 | 3.33 ± 0.96 | ~2.5 | Percent of Radiolabelled Peptide (in vitro): 98 ± 2 (%); metabolised at 3 h, 0.6 µM (in vitro; human, serum): 30%; remaining at 1 h, 0.6 µM (in vitro; human, serum): 82 ± 2%; remaining at 3 h, 0.6 µM (in vitro; human, serum): 71 ± 4%; radioactive DOTA-peptide cleared from animals [4]: more than 90%
4 | CC(C)[C@H](NC(=O)[C@@H]1CSSC(C)(C)[C@H](NC(=O)[C@H](CC(=O)O)NC(=O)CCCCCNC(=O)CN2CCN(CC(=O)O)CCN(CC(=O)O)CCN(CC(=O)O)CC2)C(=O)N[C@@H](Cc2ccccc2)C(=O)N[C@H](Cc2c[nH]c3ccccc23)C(=O)N[C@@H](CCCN)C(=O)N[C@@H](Cc2ccc(O)cc2)C(=O)N1)C(=O)O [^111In-DOTA-urantide, metal not drawn] ({DOTA-Ahx}-D[Pen]F[dW][Orn]YCV-OH; disulfide 2-7) |  |  |  |  |  |  | 2.08 ± 0.45 | 2.47 ± 0.15 | ~2.5 | 
5 | CC(C)[C@H](NC(=O)[C@@H]1CSSC[C@H](NC(=O)[C@H](CC(=O)O)NC(=O)[C@@H]2CCCN2C(=O)[C@@H](NC(=O)[C@@H](N)CCC(=O)O)[C@@H](C)O)C(=O)N[C@@H](Cc2ccccc2)C(=O)N[C@@H](Cc2c[nH]c3ccccc23)C(=O)N[C@@H](CCCCN)C(=O)N[C@@H](Cc2ccc(O)cc2)C(=O)N1)C(=O)O [hUII, H2N-ETPDc-[CFWKYC]V-CO2H] |  |  | provoked a dose-dependent increase in internalisation rate of UT | promoted a strong accumulation of UT in cytosolic puncta into cells |  |  |  |  |  | chemotactic migration (DLD-1 cells [5]): stimulated chemotactic migration; chemotactic migration (A549 cells [6]): stimulated chemotactic migration; proliferation rate (DLD-1 cells [7]): increase the proliferation rate; proliferation rate (A549 cells [8]): increase the proliferation rate
6 | CC(C)[C@H](NC(=O)[C@@H]1CSSC(C)(C)[C@H](NC(=O)[C@@H](N)CC(=O)O)C(=O)N[C@@H](Cc2ccccc2)C(=O)N[C@H](Cc2c[nH]c3ccccc23)C(=O)N[C@@H](CCCN)C(=O)N[C@@H](Cc2ccc(O)cc2)C(=O)N1)C(=O)O [urantide, c-[Pen^5, D-Trp^7, Orn^8]hUII4-11, reference compound] (H-D[Pen]F[dW][Orn]YCV-OH; disulfide 2-7; N-terminus and C-terminus assumed) | 0.029 ± 0.0112 µM | 0.0505 ± 0.0161 µM | failed to provoke UT internalisation | ineffective |  |  |  |  |  | 
